Laboratory results from the supplement of paper PMC10307832.

Legend:
Test in all cases: relative viability (nuclei count vs DMSO), 5 days (fraction); higher = more cells survive
[1] = compound: CC1=C(CC(=O)O)c2cc(F)ccc2/C1=C\c1ccc([S+](C)[O-])cc1 [Sulindac] + CCNC(=O)c1noc(-c2cc(C(C)C)c(O)cc2O)c1-c1ccc(CN2CCOCC2)cc1 [Luminespib] (partner 0.01 µM)
Summary of the method: (§1)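 Relative viability was taken as the ratio of nuclei in treated wells to nuclei in vehicle wells. Lung cancer cell lines in 1536-well plates received compounds by pin tool one day after seeding, either one drug alone or a fixed anchor-drug dose plus five library-drug doses (not always all listed) in √10 steps. Nuclei were counted on 4× images after 5 days of treatment, and values are medians of duplicate plates.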

[2] = compound: CC1=C(CC(=O)O)c2cc(F)ccc2/C1=C\c1ccc([S+](C)[O-])cc1 [Sulindac] + CS(=O)(=O)CCNCc1ccc(-c2ccc3ncnc(Nc4ccc(OCc5cccc(F)c5)c(Cl)c4)c3c2)o1 [Lapatinib] (partner 2 µM)
Summary of the method: as §1

[3] = compound: CN[C@@H]1C[C@H]2O[C@@](C)([C@@H]1OC)n1c3ccccc3c3c4c(c5c6ccccc6n2c5c31)C(=O)NC4 [Staurosporine] + CC1(C)CCC(c2ccc(Cl)cc2)=C(CN2CCN(c3ccc(C(=O)NS(=O)(=O)c4ccc(N[C@H](CCN5CCOCC5)CSc5ccccc5)c(S(=O)(=O)C(F)(F)F)c4)cc3)CC2)C1 [Navitoclax] (partner 0.5 µM)
Summary of the method: as §1

[4] = compound: O=c1[nH]cc(F)c(=O)[nH]1 [5-Fluorouracil] + COc1cccc2cc(-c3nc([C@H]4CC[C@H](C(=O)O)CC4)n4ncnc(N)c34)[nH]c12 [OSI-027] (partner 0.5 µM)
Summary of the method: as §1

Cell Line	relative viability ([1]; first compound 0.08 µM)	relative viability ([1]; first compound 0.253 µM)	relative viability ([1]; first compound 0.8 µM)	relative viability ([1]; first compound 2.53 µM)	relative viability ([1]; first compound 8 µM)	relative viability ([2]; first compound 0.08 µM)	relative viability ([2]; first compound 0.253 µM)	relative viability ([2]; first compound 0.8 µM)	relative viability ([2]; first compound 2.53 µM)	relative viability ([2]; first compound 8 µM)	relative viability ([3]; first compound 0.005 µM)	relative viability ([3]; first compound 0.01581 µM)	relative viability ([3]; first compound 0.05 µM)	relative viability ([3]; first compound 0.1581 µM)	relative viability ([3]; first compound 0.5 µM)	relative viability ([4]; first compound 0.02 µM)	relative viability ([4]; first compound 0.2 µM)	relative viability ([4]; first compound 0.6325 µM)	relative viability ([4]; first compound 2 µM)
NCI-H3122	0.136	0.0774	0.0891	0.0935	0.105	1.05	0.978	1.03	0.966	1.03	1.04	0.46	0.993	0.672	0.223	1.04	0.871	0.349	
NCI-H2126	0.963	0.804	0.888	0.991	0.955	0.793	0.722	0.758	0.773	0.861	0.915	0.624	0.461	0.433	0.339	0.589	0.39	0.302	0.365
NCI-H596	1.08	0.99	0.915	1	0.993	1.02	0.983	1.01	0.973	1.21	1.11	0.665	0.322	0.179	0.0954	0.832	0.82	0.623	0.337
LOU-NH91	0.322	0.322	0.314	0.328	0.401	0.899	0.72	0.682	0.669	0.831	0.725	0.455	0.367	0.269	0.249	0.694	0.788	0.692	0.432
NCI-H1651	1.08	0.897		0.8	0.948	1.07	0.836	0.736	0.829	1.09	0.897	0.559	0.305	0.112	0.0765	0.832	0.628	0.507	0.475
NCI-H520	0.21	0.204	0.246	0.228	0.199	0.956	0.944	0.793	0.755	1.14	1.15	0.935	0.408	0.204	0.13	0.191	0.294	0.252	0.226
